# Results reported in patent publication US9902766B2, “Antibodies to endoplasmin and their use” (University of Pittsburgh—Of The Commonwealth System of …, priority 2010, dated 2018).
# Like-named read-outs stand apart in the source and are kept apart here.
# Test system: MIAPaCa-2 cancer initiating cells (ALDHbright cells)
# Test: cancer initiating cell in vitro proliferation, ALDEFLUOR flow cytometry
# Assay type: cell-based
# Conditions: Homo sapiens, read-out: growth inhibition of ALDHbright cells
# Method: FIG. 19. […] Human pancreatic adenocarcinoma MIAPaCa-2 cells were incubated with mAb W9 (25 μg/ml), for 48 hrs at 37° C. Cells were then harvested and stained with ALDEFLUOR® (TEST). Cells stained with ALDEFLUOR®+DAEB were used as a reference (CONTROL). Human Ig (HIg) were used as a control.
# FIG. 26. […] Human pancreatic adenocarcinoma MIAPaCa-2 cells were incubated with mAb W9 (25 μg/ml), cyclopamine (20 μM), and 5-FU (10 μM) for 48 hrs at 37° C. Cells were then stained with ALDEFLUOR with or without the DEAB inhibitor to identify ALDH^bright cells. The anti-HLA class I mAb TP25.99 was used as a control.
# FIGS. 28A and 28B. […] Human pancreatic adenocarcinoma MIAPaCa-2 cells (4×10^5/ml) were irradiated at the dose of 20Gy (panel A.) and incubated with mAb W9 (10 μg/ml) and cyclopamine (20 μM) for 72 hrs at 37° C. Cells were then stained with ALDEFLUOR with or without the DEAB inhibitor to identify ALDH^bright cells. Non-irradiated cell were used as a control (panel B.).
SMILES,"inhibition at 10 µM (MIA PaCa-2, MIAPaCa-2, mAb W9 25 μg/ml, cyclopamine 20 μM, 5-FU 10 μM, 48 hrs)","inhibition at 20 µM (MIA PaCa-2, 48 h)","inhibition at 20 µM (MIA PaCa-2, 72 h)"
"O=c1[nH]cc(F)c(=O)[nH]1 [5-FU, 5-fluorouracil, reference compound]",20%,,
"CC1=C2C[C@H]3[C@@H](CC=C4C[C@@H](O)CC[C@@]43C)[C@@H]2CC[C@]12O[C@@H]1C[C@H](C)CN[C@H]1[C@H]2C [cyclopamine, reference compound]",,50%,~50%
